Results taken from US20260265216A1, “NOVEL THIOREDOXIN REDUCTASE INHIBITORS” (GENEXPLAIN GMBH, priority 2021, published 2026).

How the values were obtained:
[1] = system: MCF7 cells; assay: Apoptosis detection by FACS (Annexin V); format: cell-based; conditions: 2 μM, 24 h
Experimental: Cells were placed on 12-well plate at a density of 30000/cm^2 and treated with compounds. After 24 h incubation cells were harvested by trypsinization, fixed with 70% ethanol, treated with RNase A (0.25 mg/ml) and stained with Annexin V according to manufacturer's instructions (Thermo Fisher Scientific). Samples were analyzed on a Becton Dickinson FACScan. Data were analyzed by the CellQuest software, version 3.2.1.
To find out whether the growth suppression by 1d*HCl is due to triggering cell death by apoptosis, we performed the Annexin V-mediated staining of phosphatidylserine, exposed on surface of cells undergoing apoptotic cell death. We detected Annexin V-positive cells using FACS.

[2] = target: T1, TrxR1 in HCT116 and MCF7 cells (Homo sapiens, UniProt Q16881); assay: Detection of TrxR dimers by Western blot; format: cell-based; conditions: 5 μM, detected as soon as 2 h
T1 construct: endogenous in cells; host or cells: MCF7; HCT116
T1 sequence (Q16881 1-499 isoform Q16881-5): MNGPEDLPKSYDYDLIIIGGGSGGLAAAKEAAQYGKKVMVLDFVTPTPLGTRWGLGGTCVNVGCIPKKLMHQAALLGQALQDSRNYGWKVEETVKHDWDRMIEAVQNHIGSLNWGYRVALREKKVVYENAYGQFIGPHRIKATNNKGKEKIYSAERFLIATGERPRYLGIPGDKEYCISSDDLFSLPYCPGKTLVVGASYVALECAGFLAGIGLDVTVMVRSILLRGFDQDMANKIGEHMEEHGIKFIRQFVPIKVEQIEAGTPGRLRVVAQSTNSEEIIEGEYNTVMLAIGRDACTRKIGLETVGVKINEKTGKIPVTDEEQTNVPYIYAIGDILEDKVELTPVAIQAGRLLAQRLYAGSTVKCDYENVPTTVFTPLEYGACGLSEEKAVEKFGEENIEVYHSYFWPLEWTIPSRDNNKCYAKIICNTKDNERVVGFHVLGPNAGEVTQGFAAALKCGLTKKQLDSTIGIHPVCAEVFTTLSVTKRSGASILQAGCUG
Experimental: The extraction of total cell lysates and western blot were performed according to standard procedure. The antibodies used for immunoblotting were: p53 (sc-126, Santa Cruz Biotechnology), γH2AX (#07-164, Millipore), TrxR1 19A1 (AbFrontier). Anti-β-actin monoclonal antibody (Millipore) was used as loading control. The horseradish peroxidase-coupled secondary antibodies (Jackson ImmunoResearch) and SuperSignal™ West Dura Extended Duration Substrate detection system (Thermo Fischer Scientific), and images were visualized using ChemiDoc Imaging System (Bio-Rad).
MCF7 or HCT116 cells were treated in culture with 5 or 10 μM of 1d*HCl (Example 4) in complete medium for 2 h or 6 h. For each case, duplicate drug treated samples were produced plus duplicate control treatment samples using equal volumes of the drug vehicle dimethyl sulfoxide. Detached cells from each biological replicate were washed, suspended in PBS containing protease inhibitors and cells lysed through freeze thaw cycles in liquid N2, according to the reference protocol. Soluble fraction was separated from precipitated protein by ultracentrifugation at 100000 g for 30 minutes at 4° C. and TrxR1 dimer formation was analysed using Western blot as described above. […]

[3] = system: HCT116 cells; assay: Growth suppression in the presence of antioxidant NAC; format: cell-based; conditions: HCT116, 5 mM NAC 16 h pre-treatment; 2.5, 5, 10 μM; 24 h
Experimental: To find out whether oxidative stress plays a role in cancer cell death induced by 1d*HCl, we tested the extent of growth suppression by the treatment in the presence of antioxidant N-acetyl cysteine (NAC), which neutralize ROS. We pre-treated HCT116 cells with 5 mM NAC. After 16 h of incubation with NAC, we treated HCT116 cells with 2.5, 5, and 10 μM of 1d*HCl. We measured the growth suppression 24 h after treatment. […] Thus, we conclude that the mechanism of cancer cell growth suppression is dependent on the induction of oxidative stress by the compounds of the present invention.

[4] = system: B16 melanoma; assay: B16 melanoma mouse model; format: in vivo, C57BL/6 mice; conditions: 10 mg/kg i.p. every other day for 9 days, day 8 and day 9
Experimental: For the B16 melanoma mouse model, 6-weeks-old female C57BL/6 mice were injected subcutaneously with 1×10^6 B16 cells. When the tumors reached 80-120 mm^3, 10 mg/kg of 1d*HCl were administered intraperitoneally every other day for 9 days (days 1, 3, 5, 7, 9). Tumor volume was measured by caliper three times per week, and the volume was calculated based on the formula (in ml): L/10*W/10*W/10*0.44 (L-length, W=width of tumor). Mice were sacrificed when tumors reached 2 cm^3 or upon bleeding.
We tested the anti-tumor activity of 1d*HCl using allogenic model of B16 mice. We inoculated mice with B16 melanoma cells. When the tumors reached 100 mm^3, we treated them with i.p. injection of 1d*HCl, 10 mg/kg every other day for 9 days. […] The differences in tumor volume between untreated control mice and animals treated with 1d*HCl are all statistically significant. Thus, 1d*HCl has in vivo anti-tumor activity in this animal tumor model.

[5] = system: cancer cells grown in hypoxia; assay: Growth suppression under hypoxia versus normoxia; format: cell-based; conditions: hypoxia vs normoxia
Experimental: Breast, colon, ovarian, cervical, liver and lung carcinoma cell lines were grown in DMEM supplemented with 10% FBS, and antibiotics were cultured at 37° C. and 5% CO2. Osteosarcoma, melanoma, lymphoma, neuroblastoma and leukemia cell lines were cultured in RPMI 1640 with 10% FBS and antibiotics. An oxygen concentration of 0.3% was obtained by flushing a sealed box containing the cells with premixed gas composed of 95% nitrogen (N2) and 5% CO2 (AGA AB, Sweden). To obtain an oxygen concentration of 0.05%, the cells were flushed with the premixed gas continuously throughout the experiment.
Hypoxic tumors are often the most aggressive and resistant to chemotherapy. Therefore, we tested how cells in hypoxia will respond to the treatment by 1d*HCl. It has been shown that 1d*HCl is even more efficient in hypoxia condition. […] Thus, the compounds of the present invention are of great interest for the treatment of hypoxic solid tumors.

IC50 in hypoxia lower than that in normoxia [5]: 2.3 fold
SMILES: Cl.N#Cc1c(-c2cccnc2)[n+]([O-])c2cc(F)c(N3CCOCC3)cc2[n+]1[O-] [Compound 1d*HCl, 6-Fluoro-7-(morpholin-4-yl)-3-(pyridin-3-yl)quinoxaline-2-carbonitrile-1,4-dioxide hydrochloride]
Annexin V-positive cells (apoptosis) [1]: induced Annexin V-positive cells statistically significantly
formation of TrxR1 covalent dimers (130 kDa band) [2]: induces the formation of TrxR1 covalent dimers
growth suppression after prevention of ROS accumulation by NAC [3]: almost completely abolished the growth suppression
tumor volume compared to vehicle-treated mice [4]: lower volume of tumors
